In one assay the test system is NL-RLuc virus. Put plainly: Inhibition of HIV replication (NL-RLuc virus, luciferase readout in MT-2 cells). It is filed as cell-based. The note with it: Human immunodeficiency virus 1, MT2, 120 h, MT-2 cells infected with NL-RLuc virus, 5 days of incubation, 10% FBS, at least 2 experiments. In a few lines:
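MT-2 cells infected with NL4-3-derived virus carrying Renilla luciferase in place of part of nef, grown 5 days with serial compound dilutions in RPMI 1640/10% FBS. Virus growth read as luciferase expression. EC50 from median effect equation, at least 2 experiments.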
Usually EC50 stands for the midpoint of the concentration-response curve. A higher EC50 goes with a need for much substance. Turning to `CCCCOc1ncc(-c2cnc(C)c([C@H](OC(C)(C)C)C(=O)O)c2N2CCC(C)(C)CC2)cc1F` [Example 377, (2S)-2-(tert-butoxy)-2-[6′-butoxy-4-(4,4-dimethylpiperidin-1-yl)-5′-fluoro-6-methyl-[3,3′-bipyridine]-5-yl]acetic acid], the EC50 is 4 nM. On the same count and under the same terms, then `COc1ccc(CCOc2ncc(-c3cnc(C)c([C@H](OC(C)(C)C)C(=O)O)c3N3CCC(C)(C)CC3)cc2F)c(C)c1` [Example 399, (2S)-2-(tert-butoxy)-2-[4-(4,4-dimethylpiperidin-1-yl)-5′-fluoro-6′-[2-(4-methoxy-2-methylphenyl)ethoxy]-6-methyl-[3,3′-bipyridine]-5-yl]acetic acid], with 2 nM; and `CC1(C)CCN(c2c(-c3ccc(OCCc4ccc(F)cc4)c(F)c3)c(N)nc(Cl)c2[C@H](OC(C)(C)C)C(=O)O)CC1` [Example 209, (S)-2-(6-Amino-2-chloro-4-(4,4-dimethylpiperidin-1-yl)-5-(3-fluoro-4-(4-fluorophenethoxy)phenyl)pyridin-3-yl)-2-(tert-butoxy)acetic acid], with 4 nM; and `Cc1ncc(-c2ccc(O[C@@H](C)C(C)C)cc2)c(N2CCC(C)(C)CC2)c1[C@H](OC(C)(C)C)C(=O)O` [Example 363, (2S)-2-(tert-butoxy)-2-[4-(4,4-dimethylpiperidin-1-yl)-2-methyl-5-(4-{[(2S)-3-methylbutan-2-yl]oxy}phenyl)pyridin-3-yl]acetic acid], with 13 nM. The same measure, in the same setting: then `Cc1ncc(-c2ccc(OCCCC(C)C)cn2)c(N2CCC(C)(C)CC2)c1[C@H](OC(C)(C)C)C(=O)O` [Example 345, (2S)-2-(tert-butoxy)-2-[4′-(4,4-dimethylpiperidin-1-yl)-6′-methyl-5-[(4-methylpentyl)oxy]-[2,3′-bipyridine]-5′-yl]acetic acid], with 2 nM.

In the case of `CN(Cc1ccc(-c2cnc(Cl)c([C@H](OC(C)(C)C)C(=O)O)c2N2CCC(C)(C)CC2)cc1)c1ncnc2c1oc1ccccc12` [Example 220, (S)-2-(5-(4-((Benzofuro[3,2-d]pyrimidin-4-yl(methyl)amino)methyl)phenyl)-2-chloro-4-(4,4-dimethylpiperidin-1-yl)pyridin-3-yl)-2-(tert-butoxy)acetic acid], the EC50 came to 2 nM.

In the case of `CC1(C)CCN(c2c(-c3ccc(OCCc4ccc(F)cc4)cc3)cnc(N3CCCC3)c2[C@H](OC(C)(C)C)C(=O)O)CC1` [Example 202, (S)-2-(tert-Butoxy)-2-(4-(4,4-dimethylpiperidin-1-yl)-5-(4-(4-fluorophenethoxy)phenyl)-2-(pyrrolidin-1-yl)pyridin-3-yl)acetic acid], the EC50 was 75 nM. Still for that read-out and setting: next, `Cc1cc(-c2c(N)nc(C)c([C@H](OC(C)(C)C)C(=O)O)c2N2CCC(C)(C)CC2)cc(C)c1OCCc1ccc(F)cc1` [Example 61, (S)-2-(6-Amino-4-(4,4-dimethylpiperidin-1-yl)-5-(4-(4-fluorophenethoxy)-3,5-dimethylphenyl)-2-methylpyridin-3-yl)-2-(tert-butoxy)acetic acid]: 11 nM. Same read-out and setting: next, `Cc1cccc(Cl)c1C(C)Oc1ccc(-c2cnc(C)c([C@H](OC(C)(C)C)C(=O)O)c2N2CCC(C)(C)CC2)cn1` (stereo partly drawn) [Example 424, (2S)-2-(tert-Butoxy)-2-(6′-(1-(2-chloro-6-methylphenyl)ethoxy)-4-(4,4-dimethylpiperidin-1-yl)-6-methyl-[3, 3′-bipyridin]-5-yl)acetic acid]: 16 nM; `COc1cccc(-c2cnc(C)c([C@H](OC(C)(C)C)C(=O)O)c2N2CCC(C)(C)CC2)c1Cl` [Example 161, (2S)-2-(tert-Butoxy)-2-[5-(2-chloro-3-methoxyphenyl)-4-(4,4-dimethylpiperidin-1-yl)-2-methylpyridin-3-yl]acetic acid]: 9 nM; `Cc1nc(Nc2cccnc2)c(-c2ccc(OCCc3ccc(F)cc3)cc2)c(N2CCC(C)(C)CC2)c1[C@H](OC(C)(C)C)C(=O)O` [Example 64, (S)-2-(tert-Butoxy)-2-(4-(4,4-dimethylpiperidin-1-yl)-5-(4-(4-fluorophenethoxy)phenyl)-2-methyl-6-(pyridin-3-ylamino)pyridin-3-yl)acetic acid]: 5 nM. On the same count and under the same terms, next, `Cc1ncc(-c2cnc(OCc3ccccc3)c(F)c2)c(N2CCC(C)(C)CC2)c1[C@H](OC(C)(C)C)C(=O)O` [Example 378, (2S)-2-[6′-(benzyloxy)-4-(4,4-dimethylpiperidin-1-yl)-5′-fluoro-6-methyl-[3,3′-bipyridine]-5-yl]-2-(tert-butoxy)acetic acid]: 2 nM; `Cc1cc(-c2cnc(C)c([C@H](OC(C)(C)C)C(=O)O)c2N2CCC(C)(C)CC2)ccn1` [Example 142, (2S)-2-(tert-Butoxy)-2-[4-(4,4-dimethylpiperidin-1-yl)-2′,6-dimethyl-[3, 4′-bipyridine]-5-yl]acetic acid]: 6 nM.

Consider `Cc1nc(CN2CCC3(CCC3)CC2)c(-c2cc(F)c(F)c(F)c2)c(N2CCC(C)(C)CC2)c1[C@H](OC(C)(C)C)C(=O)O` [Example 193, (2S)-2-[6-({7-Azaspiro[3.5]nonan-7-yl}methyl)-4-(4,4-dimethylpiperidin-1-yl)-2-methyl-5-(3,4,5-trifluorophenyl)pyridin-3-yl]-2-(tert-butoxy)acetic acid], for which a half-maximal response (EC50) required 4 nM. Still for that read-out and setting: then `Cc1ncc(-c2ccc(OCCc3ccc(F)cc3)nc2)c(N2CCC(C)(C)CC2)c1[C@H](OC(C)(C)C)C(=O)O` [Example 254, (S)-2-(tert-Butoxy)-2-(4-(4,4-dimethylpiperidin-1-yl)-6′-(4-fluorophenethoxy)-6-methyl-[3,3′-bipyridin]-5-yl)acetic acid], with 0.6 nM; and `Cc1ncc(-c2ccc(OCCc3ccc(F)cc3)cn2)c(N2CCC(C)(C)CC2)c1[C@H](OC(C)(C)C)C(=O)O` [Example 126, (2S)-2-(tert-Butoxy)-2-[4′-(4,4-dimethylpiperidin-1-yl)-5-[2-(4-fluorophenyl)ethoxy]-6′-methyl-[2, 3′-bipyridine]-5′-yl]acetic acid], with 0.4 nM; and `Cc1ncc(-c2cnc(OCCc3cccc(F)c3)c(Cl)c2)c(N2CCC(C)(C)CC2)c1[C@H](OC(C)(C)C)C(=O)O` [Example 251, (S)-2-(tert-Butoxy)-2-(5′-chloro-4-(4,4-dimethylpiperidin-1-yl)-6′-(3-fluorophenethoxy)-6-methyl-[3, 3′-bipyridin]-5-yl)acetic acid], with 2 nM.

For `Cc1nc(-c2ccn(C)n2)c(-c2ccc(OCCc3ccc(F)cc3)cc2)c(N2CCC(C)(C)CC2)c1[C@H](OC(C)(C)C)C(=O)O` [Example 46, (S)-2-(tert-Butoxy)-2-(4-(4,4-dimethylpiperidin-1-yl)-5-(4-(4-fluorophenethoxy)phenyl)-2-methyl-6-(1-methyl-1H-pyrazol-3-yl)pyridin-3-yl)acetic acid], a half-maximal response (EC50) required 4 nM. The same measure, in the same setting: next, `Cc1ncc(-c2ncc(OCCc3ccc(F)cc3)cc2F)c(N2CCC(C)(C)CC2)c1[C@H](OC(C)(C)C)C(=O)O` [Example 233, (S)-2-(tert-Butoxy)-2-(4′-(4,4-dimethylpiperidin-1-yl)-3-fluoro-5-(4-fluorophenethoxy)-6′-methyl-[2, 3′-bipyridin]-5′-yl)acetic acid]: 2 nM; `Cc1nc(-c2cnc(C)c([C@H](OC(C)(C)C)C(=O)O)c2N2CCC(C)(C)CC2)ccc1OCCc1ccc(F)cc1` [Example 232, (S)-2-(tert-Butoxy)-2-(4′-(4,4-dimethylpiperidin-1-yl)-5-(4-fluorophenethoxy)-6, 6′-dimethyl-[2, 3′-bipyridin]-5′-yl)acetic acid]: 6 nM. Consider `Cc1ncc(-c2ccc(OCCc3cccc(F)c3F)cn2)c(N2CCC(C)(C)CC2)c1[C@H](OC(C)(C)C)C(=O)O` [Example 329, (2S)-2-(tert-butoxy)-2-{5-[2-(2,3-difluorophenyl)ethoxy]-4′-(4,4-dimethylpiperidin-1-yl)-6′-methyl-[2,3′-bipyridine]-5′-yl}acetic acid], for which it took 0.5 nM to reach a half-maximal effect (EC50). Same read-out and setting: then `Cc1ncc(-c2cnc(OCCc3cccc(F)c3)c(F)c2)c(N2CCC(C)(C)CC2)c1[C@H](OC(C)(C)C)C(=O)O` [Example 119, (S)-2-(tert-Butoxy)-2-(4-(4,4-dimethylpiperidin-1-yl)-5′-fluoro-6′-(3-fluorophenethoxy)-6-methyl-[3, 3′-bipyridin]-5-yl)acetic acid], with 1 nM; and `Cc1ncc(-c2ccc(C(F)(F)CC(C)C)nc2)c(N2CCC(C)(C)CC2)c1[C@H](OC(C)(C)C)C(=O)O` [Example 430, (S)-2-tert-Butoxy-2-(6′-(1,1-difluoro-3-methylbutyl)-4-(4,4-dimethylpiperidin-1-yl)-6-methyl-3, 3′-bipyridin-5-yl)acetic acid], with 16 nM. Take `Cc1ncc(-c2ccc(/C=C/C(C)C)nc2)c(N2CCC(C)(C)CC2)c1[C@H](OC(C)(C)C)C(=O)O` [Example 421, (S,E)-2-(tert-Butoxy)-2-(4-(4,4-dimethylpiperidin-1-yl)-6-methyl-6′-(3-methylbut-1-en-1-yl)-[3, 3′-bipyridin]-5-yl)acetic acid]: the EC50 stood at 8 nM. The same measure, in the same setting: then `Cc1ncc(-c2cnc(OCCc3ccc(Cl)cc3)c(F)c2)c(N2CCC(C)(C)CC2)c1[C@H](OC(C)(C)C)C(=O)O` [Example 395, (2S)-2-(tert-butoxy)-2-{6′-[2-(4-chlorophenyl)ethoxy]-4-(4,4-dimethylpiperidin-1-yl)-5′-fluoro-6-methyl-[3,3′-bipyridine]-5-yl}acetic acid], with 2 nM.

Still in this assay, the particulars now being: MT-2 cells infected with NL-RLuc virus, 5 days of incubation, 10% FBS, at least 2 experiments.
`Cc1ncc(-c2cnc(NCCc3ccc(F)cc3)c(F)c2)c(N2CCC(C)(C)CC2)c1[C@H](OC(C)(C)C)C(=O)O` [Example 121, (S)-2-(tert-Butoxy)-2-(4-(4,4-dimethylpiperidin-1-yl)-5′-fluoro-6′-((4-fluorophenethyl)amino)-6-methyl-[3, 3′-bipyridin]-5-yl)acetic acid] registered an EC50 of 2 nM.
